Key:
VEGFR-2 [1] = molecular target: T1, VEGFR-2 (Homo sapiens, UniProt P35968); test: 36-kinase panel, residual activity at […]; assay type: biochemical
T1 construct: gene KDR

AKT2 [2] = molecular target: T2, AKT2 (Homo sapiens, UniProt P31751); test: 36-kinase panel, residual activity at […]; assay type: biochemical
HER2 [3] = molecular target: T3, HER2 (Homo sapiens, UniProt P04626); test: 36-kinase panel, residual activity at […]; p-HER2 loss in SKBR-3 cells by western blot; assay type: biochemical
T3 construct: gene ERBB2

VEGFR-1 [4] = molecular target: T4, VEGFR-1 (Homo sapiens, UniProt P17948); test: 36-kinase panel, residual activity at […]; assay type: biochemical
T4 construct: gene FLT1

VEGFR-3 [5] = molecular target: T5, VEGFR-3 (Homo sapiens, UniProt P35916); test: 36-kinase panel, residual activity at […]; assay type: biochemical
T5 construct: gene FLT4

AKT1 = AKT1 (Homo sapiens, UniProt P31749); test: biochemical; design: protein kinase panel (36 kinases), residual activity at two concentrations, singlicate
Method: (§1) The kinase inhibition profile of Bozepinib was determined using a panel of 36 protein kinases (Supplementary Table S1). Residual activity values were measured by testing each compound at two concentrations (5×10^−5 M and 5×10^−6 M) in singlicate for each kinase assay. Detailed methods for kinome analyses are provided in Supplementary Materials and Methods. […] Each experiment was repeated three times. Kinase Inhibition Assays Bozepinib was dissolved in volumes of 100% DMSO to reach stock concentrations of 5×10^-3 M/100% DMSO and 5×10^-4 M/100% DMSO, respectively. In the process, the 5×10^-3 M/100% DMSO and 5×10^-4 M/100% DMSO solutions were diluted with water to 5×10^-4 M/10% DMSO and 5×10^-5 M/10% DMSO in a 96 well microtiter plate directly before use. For every kinase, 5 μl from each of the 5×10^-4 M/10% DMSO and 5×10^-5 M/10% DMSO compound solutions were transferred into the assay plates. The To study the effect of Bozepinib on cancer proliferation pathways, we carried out an ex vivo multikinase screening assay (n=36) using 5μM and 50μM (Supplementary Table S3). […] In order to analyze whether Bozepinib inhibits the HER2 signaling pathways in breast cancer cells, we treated the HER2 positive SKBR-3 cell line with 5 μM of Bozepinib and we analyzed the expression and activation of proteins involved in HER2 signaling at different times post-treatment by western blot analysis (Fig. 1A). […] Moreover, we also detected both the inhibition of ERKs and JNK phosphorylation in MCF-7 and MDA-MB 468 breast cancer cell lines, that was more notable in MCF-7 cells at 4 hours post-treatment and in MDA-MB 468 cell line after 8 hours post-treatment (Fig. 1B and 1C).

AKT2 [6] = molecular target: T2, AKT2; test: biochemical; design: protein kinase panel (36 kinases), residual activity at two concentrations, singlicate
Method: as §1

AKT3 = AKT3 (Homo sapiens, UniProt Q9Y243); test: biochemical; design: protein kinase panel (36 kinases), residual activity at two concentrations, singlicate
Method: as §1

CDK6/CycD1 = CDK6/CycD1 (Homo sapiens, UniProt Q00534); test: biochemical; design: protein kinase panel (36 kinases), residual activity at two concentrations, singlicate
Method: as §1

CDK7/CycH/MAT1 = CDK7/CycH/MAT1 (Homo sapiens, UniProt P50613); test: biochemical; design: protein kinase panel (36 kinases), residual activity at two concentrations, singlicate
Method: as §1

CDK8/CycC = CDK8/CycC (Homo sapiens, UniProt P49336); test: biochemical; design: protein kinase panel (36 kinases), residual activity at two concentrations, singlicate
Method: as §1

CDK9/CycT = CDK9/CycT (Homo sapiens, UniProt P50750); test: biochemical; design: protein kinase panel (36 kinases), residual activity at two concentrations, singlicate
Method: as §1

EGFR = EGFR (Homo sapiens, UniProt P00533); test: biochemical; design: protein kinase panel (36 kinases), residual activity at two concentrations, singlicate
Method: as §1

ERK2 = molecular target: T6, ERK2 (Homo sapiens, UniProt P28482); test: biochemical; design: protein kinase panel (36 kinases), residual activity at two concentrations, singlicate
T6 construct: gene MAPK1
Method: as §1

HER2 [7] = molecular target: T3, HER2; test: biochemical; design: protein kinase panel (36 kinases), residual activity at two concentrations, singlicate
Method: as §1

IKK- alpha = molecular target: T7, IKK- alpha (Homo sapiens, UniProt O15111); test: biochemical; design: protein kinase panel (36 kinases), residual activity at two concentrations, singlicate
T7 construct: gene CHUK
Method: as §1

IKK-beta = molecular target: T8, IKK-beta (Homo sapiens, UniProt O14920); test: biochemical; design: protein kinase panel (36 kinases), residual activity at two concentrations, singlicate
T8 construct: gene IKBKB
Method: as §1

IKK-epsilon = molecular target: T9, IKK-epsilon (Homo sapiens, UniProt Q14164); test: biochemical; design: protein kinase panel (36 kinases), residual activity at two concentrations, singlicate
T9 construct: gene IKBKE
Method: as §1

JAK3 = JAK3 (Homo sapiens, UniProt P52333); test: biochemical; design: protein kinase panel (36 kinases), residual activity at two concentrations, singlicate
Method: as §1

JNK1 = molecular target: T10, JNK1 (Homo sapiens, UniProt P45983); test: biochemical; design: protein kinase panel (36 kinases), residual activity at two concentrations, singlicate
T10 construct: gene MAPK8
Method: as §1

JNK2 = molecular target: T11, JNK2 (Homo sapiens, UniProt P45984); test: biochemical; design: protein kinase panel (36 kinases), residual activity at two concentrations, singlicate
T11 construct: gene MAPK9
Method: as §1

JNK3 = molecular target: T12, JNK3 (Homo sapiens, UniProt P53779); test: biochemical; design: protein kinase panel (36 kinases), residual activity at two concentrations, singlicate
T12 construct: gene MAPK10
Method: as §1

P38-alpha = molecular target: T13, P38-alpha (Homo sapiens, UniProt Q16539); test: biochemical; design: protein kinase panel (36 kinases), residual activity at two concentrations, singlicate
T13 construct: gene MAPK14
Method: as §1

PDK1 = molecular target: T14, PDK1 (Homo sapiens, UniProt O15530); test: biochemical; design: protein kinase panel (36 kinases), residual activity at two concentrations, singlicate
T14 construct: gene PDPK1
Method: as §1

PKC-alpha = molecular target: T15, PKC-alpha (Homo sapiens, UniProt P17252); test: biochemical; design: protein kinase panel (36 kinases), residual activity at two concentrations, singlicate
T15 construct: gene PRKCA
Method: as §1

RET = RET (Homo sapiens, UniProt P07949); test: biochemical; design: protein kinase panel (36 kinases), residual activity at two concentrations, singlicate
Method: as §1

STK23 = molecular target: T16, STK23 (Homo sapiens, UniProt Q9UPE1); test: biochemical; design: protein kinase panel (36 kinases), residual activity at two concentrations, singlicate
T16 construct: gene SRPK3
Method: as §1

STK33 = STK33 (Homo sapiens, UniProt Q9BYT3); test: biochemical; design: protein kinase panel (36 kinases), residual activity at two concentrations, singlicate
Method: as §1

VEGFR-1 [8] = molecular target: T4, VEGFR-1; test: biochemical; design: protein kinase panel (36 kinases), residual activity at two concentrations, singlicate
Method: as §1

VEGFR-2 [9] = molecular target: T1, VEGFR-2; test: biochemical; design: protein kinase panel (36 kinases), residual activity at two concentrations, singlicate
Method: as §1

VEGFR-3 [10] = molecular target: T5, VEGFR-3; test: biochemical; design: protein kinase panel (36 kinases), residual activity at two concentrations, singlicate
Method: as §1

[11] = read-out: Bozepinib 5 µM, residual activity %
[12] = read-out: Bozepinib 50 µM, residual activity %

T1 sequence (P35968 20-1356): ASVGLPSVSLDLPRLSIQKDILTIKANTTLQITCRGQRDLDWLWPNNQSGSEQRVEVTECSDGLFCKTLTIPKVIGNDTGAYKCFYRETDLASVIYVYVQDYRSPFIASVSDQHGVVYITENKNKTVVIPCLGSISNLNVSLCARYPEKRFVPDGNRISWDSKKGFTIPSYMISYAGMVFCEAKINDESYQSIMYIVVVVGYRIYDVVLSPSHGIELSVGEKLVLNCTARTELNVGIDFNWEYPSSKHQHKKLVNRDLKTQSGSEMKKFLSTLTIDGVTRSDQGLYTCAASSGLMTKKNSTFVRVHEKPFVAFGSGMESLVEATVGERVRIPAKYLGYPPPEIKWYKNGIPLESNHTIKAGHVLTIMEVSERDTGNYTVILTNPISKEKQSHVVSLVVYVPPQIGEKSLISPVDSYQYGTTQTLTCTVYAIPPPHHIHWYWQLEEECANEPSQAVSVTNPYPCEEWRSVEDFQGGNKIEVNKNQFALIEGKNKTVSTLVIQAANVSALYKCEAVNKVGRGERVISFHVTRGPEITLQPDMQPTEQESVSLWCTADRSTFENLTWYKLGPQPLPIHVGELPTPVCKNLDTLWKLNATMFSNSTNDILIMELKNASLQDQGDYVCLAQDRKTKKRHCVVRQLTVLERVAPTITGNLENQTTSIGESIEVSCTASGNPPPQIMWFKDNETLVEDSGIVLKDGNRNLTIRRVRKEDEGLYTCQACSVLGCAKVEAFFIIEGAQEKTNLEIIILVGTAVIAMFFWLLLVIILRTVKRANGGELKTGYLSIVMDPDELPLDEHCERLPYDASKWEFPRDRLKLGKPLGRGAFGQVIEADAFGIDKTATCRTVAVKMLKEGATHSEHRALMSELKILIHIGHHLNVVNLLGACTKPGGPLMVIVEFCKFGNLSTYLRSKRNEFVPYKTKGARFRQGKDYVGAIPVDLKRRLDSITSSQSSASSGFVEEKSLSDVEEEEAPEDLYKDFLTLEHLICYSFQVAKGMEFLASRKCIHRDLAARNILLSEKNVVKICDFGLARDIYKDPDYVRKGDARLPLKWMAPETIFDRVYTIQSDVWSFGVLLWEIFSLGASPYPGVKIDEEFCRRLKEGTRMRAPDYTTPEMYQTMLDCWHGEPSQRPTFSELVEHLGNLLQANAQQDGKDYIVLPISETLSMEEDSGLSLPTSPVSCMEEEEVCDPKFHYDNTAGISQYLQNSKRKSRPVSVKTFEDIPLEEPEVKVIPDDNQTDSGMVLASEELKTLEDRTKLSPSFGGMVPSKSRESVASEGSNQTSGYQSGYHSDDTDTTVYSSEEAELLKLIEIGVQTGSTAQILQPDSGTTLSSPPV
T3 sequence (P04626 23-1255): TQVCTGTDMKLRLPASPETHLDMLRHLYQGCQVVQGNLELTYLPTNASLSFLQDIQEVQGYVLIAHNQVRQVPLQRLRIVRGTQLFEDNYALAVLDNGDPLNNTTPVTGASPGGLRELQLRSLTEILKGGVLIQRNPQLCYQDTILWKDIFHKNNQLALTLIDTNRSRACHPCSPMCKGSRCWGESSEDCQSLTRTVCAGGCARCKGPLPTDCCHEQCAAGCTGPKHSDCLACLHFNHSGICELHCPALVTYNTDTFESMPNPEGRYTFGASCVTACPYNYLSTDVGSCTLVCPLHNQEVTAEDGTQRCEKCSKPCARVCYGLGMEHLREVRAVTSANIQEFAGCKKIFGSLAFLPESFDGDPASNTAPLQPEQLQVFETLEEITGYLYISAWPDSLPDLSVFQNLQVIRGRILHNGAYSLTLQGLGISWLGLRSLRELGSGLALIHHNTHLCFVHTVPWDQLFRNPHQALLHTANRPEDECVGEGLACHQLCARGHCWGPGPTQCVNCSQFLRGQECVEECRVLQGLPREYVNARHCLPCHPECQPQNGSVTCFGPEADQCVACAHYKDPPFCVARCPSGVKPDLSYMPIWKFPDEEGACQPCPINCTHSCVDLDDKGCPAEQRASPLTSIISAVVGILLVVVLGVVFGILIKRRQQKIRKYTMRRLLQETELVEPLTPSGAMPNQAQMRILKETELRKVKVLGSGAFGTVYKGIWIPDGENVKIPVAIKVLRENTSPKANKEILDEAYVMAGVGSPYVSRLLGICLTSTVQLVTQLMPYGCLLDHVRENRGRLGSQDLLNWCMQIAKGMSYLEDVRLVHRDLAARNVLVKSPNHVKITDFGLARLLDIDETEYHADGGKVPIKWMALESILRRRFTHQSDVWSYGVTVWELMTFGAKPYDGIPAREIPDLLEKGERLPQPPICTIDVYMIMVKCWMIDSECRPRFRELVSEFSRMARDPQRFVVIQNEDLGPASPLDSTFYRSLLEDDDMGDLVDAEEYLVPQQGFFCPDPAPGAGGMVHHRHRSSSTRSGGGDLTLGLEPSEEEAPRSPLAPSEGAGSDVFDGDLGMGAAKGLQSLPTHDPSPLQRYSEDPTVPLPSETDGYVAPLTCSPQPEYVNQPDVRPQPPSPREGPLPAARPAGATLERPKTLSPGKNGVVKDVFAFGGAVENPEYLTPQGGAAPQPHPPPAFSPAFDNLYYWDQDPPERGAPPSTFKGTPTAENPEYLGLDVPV
T4 sequence (P17948 27-1338): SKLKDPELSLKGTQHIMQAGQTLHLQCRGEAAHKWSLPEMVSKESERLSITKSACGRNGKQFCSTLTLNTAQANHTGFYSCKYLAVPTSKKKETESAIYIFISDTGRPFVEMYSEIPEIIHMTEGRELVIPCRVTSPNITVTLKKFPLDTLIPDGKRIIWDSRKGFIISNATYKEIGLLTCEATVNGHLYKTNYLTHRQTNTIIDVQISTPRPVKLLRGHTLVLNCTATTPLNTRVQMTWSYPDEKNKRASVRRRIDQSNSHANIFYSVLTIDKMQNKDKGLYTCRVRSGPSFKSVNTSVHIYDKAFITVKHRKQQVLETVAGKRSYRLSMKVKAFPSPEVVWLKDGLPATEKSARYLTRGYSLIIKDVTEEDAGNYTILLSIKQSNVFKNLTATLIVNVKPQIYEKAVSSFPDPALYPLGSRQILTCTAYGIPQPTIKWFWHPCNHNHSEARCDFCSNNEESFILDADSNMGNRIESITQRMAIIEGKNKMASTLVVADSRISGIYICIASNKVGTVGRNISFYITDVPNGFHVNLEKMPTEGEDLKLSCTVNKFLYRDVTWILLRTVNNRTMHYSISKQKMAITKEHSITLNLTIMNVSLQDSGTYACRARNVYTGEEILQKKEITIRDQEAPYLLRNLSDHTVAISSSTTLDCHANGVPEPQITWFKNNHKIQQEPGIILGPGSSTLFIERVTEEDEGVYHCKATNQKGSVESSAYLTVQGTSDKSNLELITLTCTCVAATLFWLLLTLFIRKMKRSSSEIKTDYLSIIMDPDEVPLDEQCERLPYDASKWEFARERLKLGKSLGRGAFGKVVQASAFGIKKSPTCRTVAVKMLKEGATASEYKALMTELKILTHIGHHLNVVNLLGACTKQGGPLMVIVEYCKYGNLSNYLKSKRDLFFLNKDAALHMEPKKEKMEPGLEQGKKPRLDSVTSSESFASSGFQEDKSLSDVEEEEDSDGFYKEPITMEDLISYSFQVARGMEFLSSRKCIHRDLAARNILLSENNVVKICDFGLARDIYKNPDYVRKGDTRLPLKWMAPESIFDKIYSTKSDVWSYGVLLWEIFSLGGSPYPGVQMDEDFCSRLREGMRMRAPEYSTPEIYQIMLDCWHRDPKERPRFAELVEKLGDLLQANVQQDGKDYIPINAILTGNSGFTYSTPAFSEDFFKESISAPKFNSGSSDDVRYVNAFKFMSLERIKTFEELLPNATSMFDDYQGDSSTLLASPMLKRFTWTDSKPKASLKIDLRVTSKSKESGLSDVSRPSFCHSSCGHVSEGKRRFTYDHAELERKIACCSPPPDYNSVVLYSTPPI
T2 sequence (P31751 whole entry): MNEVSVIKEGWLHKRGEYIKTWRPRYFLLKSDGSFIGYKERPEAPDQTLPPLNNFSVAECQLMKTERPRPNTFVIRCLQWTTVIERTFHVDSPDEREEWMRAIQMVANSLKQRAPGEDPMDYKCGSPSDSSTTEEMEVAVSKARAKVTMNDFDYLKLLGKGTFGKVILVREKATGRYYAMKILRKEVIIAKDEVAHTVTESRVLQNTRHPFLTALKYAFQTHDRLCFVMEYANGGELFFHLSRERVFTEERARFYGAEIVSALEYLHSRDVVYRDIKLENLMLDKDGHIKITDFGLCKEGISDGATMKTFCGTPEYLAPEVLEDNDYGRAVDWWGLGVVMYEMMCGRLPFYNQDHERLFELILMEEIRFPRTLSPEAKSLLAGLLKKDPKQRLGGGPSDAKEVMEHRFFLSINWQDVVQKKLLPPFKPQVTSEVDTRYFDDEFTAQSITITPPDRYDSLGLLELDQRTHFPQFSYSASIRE
Chain of AKT3 (Q9Y243 whole entry): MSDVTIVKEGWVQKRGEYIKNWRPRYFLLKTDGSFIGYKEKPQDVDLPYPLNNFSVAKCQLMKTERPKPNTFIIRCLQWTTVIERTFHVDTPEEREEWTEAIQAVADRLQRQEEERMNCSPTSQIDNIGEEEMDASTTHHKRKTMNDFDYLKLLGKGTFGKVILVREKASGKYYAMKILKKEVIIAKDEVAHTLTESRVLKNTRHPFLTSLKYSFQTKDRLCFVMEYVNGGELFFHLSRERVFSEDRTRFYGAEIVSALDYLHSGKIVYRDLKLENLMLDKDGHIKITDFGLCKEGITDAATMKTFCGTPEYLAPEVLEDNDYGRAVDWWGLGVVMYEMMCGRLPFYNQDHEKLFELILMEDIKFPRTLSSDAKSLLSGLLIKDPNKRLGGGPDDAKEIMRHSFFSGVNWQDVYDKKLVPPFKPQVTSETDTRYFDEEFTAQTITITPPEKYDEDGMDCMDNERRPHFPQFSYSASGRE

remaining activity at 5 µM (AKT1; [11]): 96% | remaining activity at 50 µM (AKT1; [12]): 78% | remaining activity at 5 µM (AKT2 [6]; [11]): 100% | remaining activity at 50 µM (AKT2 [6]; [12]): 43% | remaining activity at 5 µM (AKT3; [11]): 98% | remaining activity at 50 µM (AKT3; [12]): 88% | remaining activity at 5 µM (CDK6/CycD1; [11]): 95% | remaining activity at 50 µM (CDK6/CycD1; [12]): 64% | remaining activity at 5 µM (CDK7/CycH/MAT1; [11]): 96% | remaining activity at 50 µM (CDK7/CycH/MAT1; [12]): 69% | remaining activity at 5 µM (CDK8/CycC; [11]): 109% | remaining activity at 50 µM (CDK8/CycC; [12]): 72% | remaining activity at 5 µM (CDK9/CycT; [11]): 102% | remaining activity at 50 µM (CDK9/CycT; [12]): 69% | remaining activity at 5 µM (EGFR; [11]): 84% | remaining activity at 50 µM (EGFR; [12]): 17% | remaining activity at 5 µM (ERK2; [11]): 104% | remaining activity at 50 µM (ERK2; [12]): 50% | remaining activity at 5 µM (HER2 [7]; [11]): 101% | remaining activity at 50 µM (HER2 [7]; [12]): 25% | remaining activity at 5 µM (IKK- alpha; [11]): 104% | remaining activity at 50 µM (IKK- alpha; [12]): 51% | remaining activity at 5 µM (IKK-beta; [11]): 113% | remaining activity at 50 µM (IKK-beta; [12]): 78% | remaining activity at 5 µM (IKK-epsilon; [11]): 113% | remaining activity at 50 µM (IKK-epsilon; [12]): 71% | remaining activity at 5 µM (JAK3; [11]): 94% | remaining activity at 50 µM (JAK3; [12]): 43% | remaining activity at 5 µM (JNK1; [11]): 45% | remaining activity at 50 µM (JNK1; [12]): 29% | remaining activity at 5 µM (JNK2; [11]): 77% | remaining activity at 50 µM (JNK2; [12]): 37% | remaining activity at 5 µM (JNK3; [11]): 81% | remaining activity at 50 µM (JNK3; [12]): 43% | remaining activity at 5 µM (P38-alpha; [11]): 115% | remaining activity at 50 µM (P38-alpha; [12]): 57% | remaining activity at 5 µM (PDK1; [11]): 41% | remaining activity at 50 µM (PDK1; [12]): 27% | remaining activity at 5 µM (PKC-alpha; [11]): 86% | remaining activity at 50 µM (PKC-alpha; [12]): 24% | remaining activity at 5 µM (RET; [11]): 79% | remaining activity at 50 µM (RET; [12]): 14% | remaining activity at 5 µM (STK23; [11]): 95% | remaining activity at 50 µM (STK23; [12]): 89% | remaining activity at 5 µM (STK33; [11]): 102% | remaining activity at 50 µM (STK33; [12]): 72% | remaining activity at 5 µM (VEGFR-1 [8]; [11]): 91% | remaining activity at 50 µM (VEGFR-1 [8]; [12]): 18% | remaining activity at 5 µM (VEGFR-2 [9]; [11]): 82% | remaining activity at 50 µM (VEGFR-2 [9]; [12]): 13% | remaining activity at 5 µM (VEGFR-3 [10]; [11]): 84% | remaining activity at 50 µM (VEGFR-3 [10]; [12]): 13%
Structure (SMILES): O=[N+]([O-])c1ccc(S(=O)(=O)N2CC(n3cnc4c(Cl)nc(Cl)nc43)OCc3ccccc32)cc1 (racemic) [Bozepinib, (RS)-2,6-dichloro-9-[1-(p-nitrobenzenesulfonyl)-1,2,3,5-tetrahydro-4,1-benzoxazepin-3-yl]-9H-purine]
36-kinase panel, residual activity at 5 and 50 μM (VEGFR-2 [1]): showed inhibitory effects against VEGFR-1, VEGFR-2 and VEGFR-3 in the kinome assay | 36-kinase panel, residual activity at 5 and 50 μM (AKT2 [2]): HER2, AKT2 and VEGF receptors were considerably inhibited in the screening (Supplementary Table S3) | 36-kinase panel, residual activity at 5 and 50 μM; p-HER2 loss in SKBR-3 cells b (HER2 [3]): HER2, AKT2 and VEGF receptors were considerably inhibited in the screening (Supplementary Table S3) | 36-kinase panel, residual activity at 5 and 50 μM (VEGFR-1 [4]): showed inhibitory effects against VEGFR-1, VEGFR-2 and VEGFR-3 in the kinome assay | 36-kinase panel, residual activity at 5 and 50 μM (VEGFR-3 [5]): showed inhibitory effects against VEGFR-1, VEGFR-2 and VEGFR-3 in the kinome assay

Source: publication PMC4116505, “HER2-signaling pathway, JNK and ERKs kinases, and cancer stem-like cells are targets of Bozepinib” (Oncotarget, 2014)
